Data taken from patent US4411900A, “Benzhydrylpiperozinyl thiazole derivatives and pharmaceutical composition comprising the same” (Fujisawa Pharmaceutical Co., Ltd., priority 1980, dated 1983).

System: anaphylactic asthma in guinea-pigs
Experiment: Antagonism to anaphylactic asthma in guinea-pigs (inhibitory effect from number of surviving animals)
Format: in vivo, guinea-pig (male Hartley strain)
Details: oral, 30 minutes before egg albumin challenge, survival more than 2 hours after antigen spray, *Dose group: 5 guineapigs (compound D)
Description: Equal volumes of a saline solution of egg albumin (200 mg/ml) and of Freund's Complete Ajuvant were mixed and emulsified. Each male New Zealand white strain rabbits, each weighing 2 to 2.5 kg., received an intramuscular injection of 0.5 ml of the emulsion in the left and right thigh regions. One week later, they received an intradermal injection of 0.25 ml of a saline solution of egg albumin (concentration: 20 mg/ml) in the different four sites of the dorsal skin surface three times every other week. Blood samples were collected from the carotid artery one week after the last injection.
The level of anaphylactic anti-egg albumin antibodies in pools of sera were determined by passive cutaneous anaphylaxis (PCA) reactions using shaven Hartley strain test guinea-pigs.
Antiserum was serially diluted (two fold) in saline and 0.1 ml of each antiserum dilution were injected intradermally into the dorsal skin surface of the test guinea-pigs. 24 hours after intradermal sensitization,Egg albumin-specific PCA reactions were elicited by intravenous injection of 10 mg of egg albumin in 1 ml of 1% Evans blue dye dissolved in saline. Reactions were read and recorded as the highest dilution of serum evoking threshold PCA reactivity (5 mm diameter).
Male Hartley strain guinea-pigs, weighing 305 to 400 g, were used. Animals were sensitized by an intravenous injection of rabbit antiserum against egg albumin (4000 PCA titer) with 0.5 ml/animal. After 24 hours, animals were placed individually in a plastic chamber of 5.3 liter volume. An aerosol of 5% egg albumin solution was sprayed in the chamber at a rate of 0.16 ml/min with a commercial nebulizer. The test compounds were given to the animals orally 30 minutes before the challenge with the egg albumin solution. Each dose group consisted of 3 or 5 animals. The inhibitory effect of the test compounds was determined from the number of surviving animals more than 2 hours after spray of the antigen.

SMILES: CCS(=O)(=O)Nc1nc(CN2CCN(C(c3ccccc3)c3ccccc3)CC2)cs1 [Compound B, 4-(4-Benzhydrylpiperazin-1-ylmethyl)-2-ethanesulfonamidothiazole]
- Inhibitory Effect (Dose 1 mg/kg): 67%
- Inhibitory Effect (Dose 10 mg/kg): 100%

SMILES: CC(=O)Nc1nc(CCCN2CCN(C(c3ccccc3)c3ccccc3)CC2)cs1 [Compound D, 4-[3-(4-Benzhydrylpiperazin-1-yl)-propyl]-2-acetamidothiazole]
- Inhibitory Effect (Dose 1 mg/kg): 40%
- Inhibitory Effect (Dose 10 mg/kg): 100%

SMILES: CCCS(=O)(=O)Nc1nc(CN2CCN(C(c3ccccc3)c3ccccc3)CC2)cs1 [Compound C, 4-(4-Benzhydrylpiperazin-1-ylmethyl)-2-propanesulfonamidothiazole]
- Inhibitory Effect (Dose 1 mg/kg): 100%
- Inhibitory Effect (Dose 10 mg/kg): 100%

SMILES: CS(=O)(=O)Nc1nc(CN2CCN(C(c3ccccc3)c3ccccc3)CC2)cs1 [Compound A, 4-(4-Benzhydrylpiperazin-1-ylmethyl)-2-methanesulfonamidothiazole]
- Inhibitory Effect (Dose 1 mg/kg): 100%
- Inhibitory Effect (Dose 10 mg/kg): 100%
